Experimental data as given in patent US20200069679A1, “NINTEDANIB FOR USE IN METHODS FOR THE TREATMENT OF INTERSTITIAL LUNG DISEASES BY COADMINISTRATION WITH OLADATEROL” (Boehringer Ingelheim International GmbH, priority 2016, published 2020).

Tested on: TGF-β induced ET-1 release in cultured human lung fibroblasts (IPF-HLF)
Assay: TGF-β induced ET-1 release in cultured human lung fibroblasts from IPF patients (ELISA of supernatant)
Type: cell-based
Conditions: IPF-HLF stimulated with TGF-β for 48 h, n=6 incubations, normalized to unstimulated (=100% inhibition) and TGF-β-stimulated (=0% inhibition) ET-1 levels
Experimental: The principle of the assay is the incubation of IPF-HLF with transforming growth factor beta (TGF-β) for 48 h. In the cell culture supernatant the concentration of the pro-fibrotic mediator endothelin-1 (ET-1) was determined by enzyme linked immune sorbent assay.
HLFs from 5 different patients with idiopathic pulmonary fibrosis (IPF) were used to do repeated measurements. For the control groups without TGF-β stimulation, data sets from 11 incubations were included and for TGF-β-stimulated fibroblasts data sets from 12 incubations were included. For all olodaterol and/or nintedanib-treated groups, n=6 incubations were conducted. The experiments were conducted in the presence of nintedanib at 30 nM concentration and/or olodaterol at 1 pM (FIG. 1), 10 pM (FIG. 2) and 100 pM (FIG. 3) concentrations, respectively.

Compound	reduction of ET-1 release (olodaterol at 1-100 pM)	reduction of ET-1 release (nintedanib at 30 nM)
COc1ccc(CC(C)(C)NC[C@H](O)c2cc(O)cc3c2OCC(=O)N3)cc1 [olodaterol]	1%-47%	–
COC(=O)c1ccc2c(c1)NC(=O)/C2=C(\Nc1ccc(N(C)C(=O)CN2CCN(C)CC2)cc1)c1ccccc1 [nintedanib]	–	7%
